# In patent US20260053777A1, “USE OF NRF2 ACTIVATORS FOR THE TREATMENT OF CEREBRAL SMALL VESSEL DISEASE” (INSTITUT NATIONAL DE LA SANTÉ ET DE LA RECHERCHE MÉDICALE, priority 2022, published 2026):
# How the values were obtained:
# [1] = test system: Nrf2 and its target genes; test: qPCR screening of Nrf2 and its target genes on brain endothelial cells isolated from adult mice with/without tBHQ diet; assay type: in vivo
# NRF2 = test: Rescue of the effect of TRIM47 knockdown by activation of NRF2 at the protein level (FIG. 3); assay type: cell-based, human; conditions: tBHQ stabilizing NRF2 protein
# Source text: FIG. 3. […] Methods. TRIM47 interacting effectors were searched by proximity labeling assay (BioID) in human brain EC. TRIM47 knockdown in EC allowed to explore TRIM47 role in functional assays, and to identify transcriptional response by RNA-sequencing.
# Trim47 −/− adult mice = test: Water maze behavioural test on adult mice with/without a diet with tBHQ; assay type: in vivo
# Experimental: FIG. 4. TRIM47 is essential to brain physiology by promoting the NRF2 antioxidant protective system. […] B. RNA-sequencing was performed on HBMEC treated with control or TRIM47 siRNA. C. Assessment of blood brain barrier (BBB) permeability was done on Trim47 +/+ and Trim47 −/− adult mice. Mann-Whitney test. D. Representative image by immunofluorescence of GFAP expression (activated astrocytes) in brain sections from Trim47 +/+ and Trim47 −/− adult mice. E. Water maze behavioural test performed on adult mice with/without a diet with tBHQ. Two-way ANOVA with repeated measures. […] Latency to reach platform is shown for the 4 training days (FIG. 4E).
# [2] = test system: Human brain microvascular endothelial cells (HBMEC); test: Cellrox Green detection of oxidative stress in HBMEC treated with control or TRIM47 siRNA and Luperox; assay type: cell-based; conditions: Luperox, pre-treatment with tBHQ
# Experimental: Human brain microvascular endothelial cells (HBMEC) were treated with control or TRIM47 siRNA and with/without Luperox (inducer of oxidative stress) and incubated with Cellrox Green dye (detection of oxidative stress).
# [3] = Trim47 KO mice, brain EC, +tBHQ diet (1% W/W, 1 month), mean of n = 5
# [4] = Trim47 WT mice, brain EC, +tBHQ diet (1% W/W, 1 month), mean of n = 5
structure (smiles),measurement,setting,value
"CC(C)(C)c1cc(O)ccc1O [tBHQ, tert-butylhydroquinone]",Relative gene expression fold change (normalized to Pecam1): Cdh5 (BBB integrity),[1]; [3],0.967
same,Relative gene expression fold change (normalized to Pecam1): Cldn5 (BBB integrity),[1]; [3],0.877
same,Relative gene expression fold change (normalized to Pecam1): Cldn11 (BBB integrity),[1]; [3],1.020
same,Relative gene expression fold change (normalized to Pecam1): Gclm (Nrf2 pathway),[1]; [3],1.009
same,Relative gene expression fold change (normalized to Pecam1): Hmox1 (Nrf2 pathway),[1]; [3],1.095
same,Relative gene expression fold change (normalized to Pecam1): Keap1 (Nrf2 pathway),[1]; [3],0.730
same,Relative gene expression fold change (normalized to Pecam1): Me1 (Nrf2 pathway),[1]; [3],1.148
same,Relative gene expression fold change (normalized to Pecam1): Nfe2l2 (Nrf2 pathway),[1]; [3],1.040
same,Relative gene expression fold change (normalized to Pecam1): Nqo1 (Nrf2 pathway),[1]; [3],1.084
same,Relative gene expression fold change (normalized to Pecam1): Ocln (BBB integrity),[1]; [3],0.895
same,Relative gene expression fold change (normalized to Pecam1): Slc7a11 (Nrf2 pathway),[1]; [3],1.145
same,Relative gene expression fold change (normalized to Pecam1): Cdh5 (BBB integrity),[1]; [4],1.013
same,Relative gene expression fold change (normalized to Pecam1): Cldn5 (BBB integrity),[1]; [4],1.071
same,Relative gene expression fold change (normalized to Pecam1): Cldn11 (BBB integrity),[1]; [4],1.016
same,Relative gene expression fold change (normalized to Pecam1): Gclm (Nrf2 pathway),[1]; [4],0.999
same,Relative gene expression fold change (normalized to Pecam1): Hmox1 (Nrf2 pathway),[1]; [4],1.033
same,Relative gene expression fold change (normalized to Pecam1): Keap1 (Nrf2 pathway),[1]; [4],1.014
same,Relative gene expression fold change (normalized to Pecam1): Me1 (Nrf2 pathway),[1]; [4],1.033
same,Relative gene expression fold change (normalized to Pecam1): Nfe2l2 (Nrf2 pathway),[1]; [4],1.007
same,Relative gene expression fold change (normalized to Pecam1): Nqo1 (Nrf2 pathway),[1]; [4],1.033
same,Relative gene expression fold change (normalized to Pecam1): Ocln (BBB integrity),[1]; [4],1.025
same,Relative gene expression fold change (normalized to Pecam1): Slc7a11 (Nrf2 pathway),[1]; [4],1.030
same,Relative gene expression fold change (normalized to Pecam1): Trim47,[1]; [4],1.066
same,"Impairment of the Nrf2 pathway in Trim47 −/− mice (qPCR, brain endothelial cells)","[1]; Trim47 −/− adult mice, 1-month diet with tBHQ (1% W/W)",prevented
same,Effect of TRIM47 knockdown (FIG. 3),NRF2,partly rescues the effect of TRIM47 knockdown
same,"Cognitive impairment in water maze (latency to reach platform, 4 training days)",Trim47 −/− adult mice,prevent cognitive impairment
same,Induction of oxidative stress (Cellrox Green dye),[2],reversed induction of oxidative stress
